Measured values as given in article PMC4657098, “A Review of the Updated Pharmacophore for the Alpha 5 GABA(A) Benzodiazepine Receptor Model” (International Journal of Medicinal Chemistry, 2015).
Like-named read-outs stand apart in the source and are kept apart here.

Columns and labels:
[1] = system: Bz BS of GABA(A) receptors; settings: cited from earlier work
α1β3γ2 GABAA/BzR [2] = molecular target: T1, α1β3γ2 GABAA/BzR (Homo sapiens, UniProt P14867+P18507); assay: Competition binding to HEK cell membranes, α1β3γ2; parameters: expressed in transfected cells
α2β3γ2 GABAA/BzR [3] = molecular target: T2, α2β3γ2 GABAA/BzR (Homo sapiens, UniProt P18507+P47869); assay: Competition binding to HEK cell membranes, α2β3γ2; parameters: expressed in transfected cells
α3β3γ2 GABAA/BzR [4] = molecular target: T3, α3β3γ2 GABAA/BzR (Homo sapiens, UniProt P18507+P34903); assay: Competition binding to HEK cell membranes, α3β3γ2; parameters: expressed in transfected cells
α5β3γ2 GABAA/BzR [5] = molecular target: T4, α5β3γ2 GABAA/BzR (Homo sapiens, UniProt P18507+P31644); assay: Competition binding to HEK cell membranes, α5β3γ2; parameters: expressed in transfected cells
α6β3γ2 GABAA/BzR [6] = molecular target: T5, α6β3γ2 GABAA/BzR (Homo sapiens, UniProt P18507+Q16445); assay: Competition binding to HEK cell membranes, α6β3γ2; parameters: expressed in transfected cells
α4β3γ2 GABAA/BzR [7] = molecular target: T6, α4β3γ2 GABAA/BzR (Homo sapiens, UniProt P18507+P48169); settings: cited from earlier work
T6 construct: expressed in transfected cells; host or cells: LTK cells (given for XLi-093 only)

α1β3γ2 GABAA/BzR [8] = molecular target: T1, α1β3γ2 GABAA/BzR; parameters: expressed in transfected cells; host or cells: LTK cells (given for XLi-093 only); settings: cited from earlier work
α2β3γ2 GABAA/BzR [9] = molecular target: T2, α2β3γ2 GABAA/BzR; parameters: expressed in transfected cells; host or cells: LTK cells (given for XLi-093 only); settings: cited from earlier work
α3β3γ2 GABAA/BzR [10] = molecular target: T3, α3β3γ2 GABAA/BzR; parameters: expressed in transfected cells; host or cells: LTK cells (given for XLi-093 only); settings: cited from earlier work
α5β3γ2 GABAA/BzR [11] = molecular target: T4, α5β3γ2 GABAA/BzR; parameters: expressed in transfected cells; host or cells: LTK cells (given for XLi-093 only); settings: read-out: Affinity Ki α5; cited from earlier work
α6β3γ2 GABAA/BzR [12] = molecular target: T5, α6β3γ2 GABAA/BzR; parameters: expressed in transfected cells; host or cells: LTK cells (given for XLi-093 only); settings: cited from earlier work
[13] = system: alcohol preferring and HAD rats; settings: cited from earlier work
α4β3γ2 GABAA/BzR [14] = molecular target: T6, α4β3γ2 GABAA/BzR; assay: biochemical; format: binding; settings: Figure 17; read-out: Binding data Ki α4

SMILES	Ki (α4β3γ2 GABAA/BzR [7]; read-out: Affinity Ki α4) [nM]	Ki (α1β3γ2 GABAA/BzR [8]; read-out: Affinity Ki α1) [nM]	Ki (α2β3γ2 GABAA/BzR [9]; read-out: Affinity Ki α2) [nM]	Ki (α3β3γ2 GABAA/BzR [10]; read-out: Affinity Ki α3) [nM]	Ki (α5β3γ2 GABAA/BzR [11]) [nM]	Ki (α6β3γ2 GABAA/BzR [12]; read-out: Affinity Ki α6) [nM]	other results
CCCOc1ccc2[nH]c3cnc(C(=O)OCC)c(COC)c3c2c1 [6-PBC, 6-(propyloxy)-4-(methoxymethyl)-β-carboline-3-carboxylic acid ethyl ester]							modulation ([1]; Supplement Table 1): partial agonist; Ki (α1β3γ2 GABAA/BzR [2]; Ki α1): 0.49 nM; Ki (α2β3γ2 GABAA/BzR [3]; Ki α2): 1.21 nM; Ki (α3β3γ2 GABAA/BzR [4]; Ki α3): 2.2 nM; Ki (α5β3γ2 GABAA/BzR [5]; Ki α5): 2.39 nM; Ki (α6β3γ2 GABAA/BzR [6]; Ki α6): 1340 nM
CC(C)(C)OC(=O)c1cc2c(cn1)[nH]c1ccc(I)cc12 [29(iodo-βCCt)]	> 4000	14.4	44.9	123	65.3	> 4000	
CCOC(=O)c1cc2c(cn1)[nH]c1ccc(I)cc12 [31(iodo-βCCE)]	1000	4.8	31	34	286	1000	
O=C(OC(C(F)(F)F)C(F)(F)F)c1cc2c(cn1)[nH]c1ccc(I)cc12 [32(WY-B-08)]	3000	78	301	131	681	3000	
O=C(OCC(F)(F)F)c1cc2c(cn1)[nH]c1ccc(-c3ccco3)cc12 [34(WYB27-1)]	3000	26	143	117	127	2000	
O=C(OCC(F)(F)F)c1cc2c(cn1)[nH]c1ccc(-c3ccccc3)cc12 [38(WYB29-2)]	2000		137	125	299	2000	
CC(C)(C)OC(=O)c1cc2c(cn1)[nH]c1ccc(C#Cc3ccc4[nH]c5cnc(C(=O)OC(C)(C)C)cc5c4c3)cc12 [42(WY-S-2)]	> 300	30	124	100	> 300	> 4000	Ki (α1β3γ2 GABAA/BzR [2]; binding to α1 subtypes): 30 nM
CC(C)(C)OC(=O)c1cc2c(cn1)[nH]c1ccc(C#CC#Cc3ccc4[nH]c5cnc(C(=O)OC(C)(C)C)cc5c4c3)cc12 [43(WY-S-6)]	5000	120	1060	3940	5000	5000	Ki (α1β3γ2 GABAA/BzR [2]; binding to α1 subtypes): 120 nM
CCOC(=O)c1cc2c(cn1)[nH]c1ccccc12 [BCCE, reference compound]							modulation [1]: inverse agonist; Ki (α1β3γ2 GABAA/BzR [2]; read-out: Ki α1): 1.2 nM
CC(C)(C)OC(=O)c1cc2c(cn1)[nH]c1ccccc12 [BCCt]							Ki (α4β3γ2 GABAA/BzR [7]; Figure 33, αxβ3γ2, read-out: Affinity Ki α4): 1000 nM; rate at which rats self-administrated alcohol ([13]; alcohol preferring and HAD rats): reduce the rate; sucrose self-administration [13]: little or no effect; modulation ([1]; Supplement Table 1): antagonist; pharmacological properties compared with classical benzodiazepine receptor antagonists [1]: near GABA neutral antagonists; Ki (α1β3γ2 GABAA/BzR [2]; Ki α1): 0.03 nM; Ki (α2β3γ2 GABAA/BzR [3]; Ki α2): 0.0419 nM; Ki (α3β3γ2 GABAA/BzR [4]; Ki α3): 0.035 nM; Ki (α5β3γ2 GABAA/BzR [5]; Ki α5): 69.3 nM; Ki (α5β3γ2 GABAA/BzR [5]; read-out: Ki α5): 111 nM; Ki (α6β3γ2 GABAA/BzR [6]; Ki α6): 5000 nM; Ki (α6β3γ2 GABAA/BzR [12]; Figure 33, αxβ3γ2, read-out: Affinity Ki α6): > 5000 nM
CCOC(=O)c1ncn2c1CN=C(c1ccccc1)c1cc(-c3ccccc3)ccc1-2 [DM-I-81 (9)]							Ki (α4β3γ2 GABAA/BzR [14]): > 2000 nM; Ki (α4β3γ2 GABAA/BzR [7]; Figure 4, read-out: Ki α4): > 2000 nM; Ki (α1β3γ2 GABAA/BzR [2]; Figure 17, read-out: Binding data Ki α1): > 2000 nM; Ki (α2β3γ2 GABAA/BzR [3]; Figure 17, read-out: Binding data Ki α2): > 2000 nM; Ki (α3β3γ2 GABAA/BzR [4]; Figure 17, read-out: Binding data Ki α3): > 2000 nM; Ki (α5β3γ2 GABAA/BzR [5]; Figure 17, read-out: Binding data Ki α5): 176 nM; Ki (α6β3γ2 GABAA/BzR [6]; Figure 17, read-out: Binding data Ki α6): > 2000 nM; Ki (α1β3γ2 GABAA/BzR [8]; Figure 4, read-out: Ki α1): > 2000 nM; Ki (α2β3γ2 GABAA/BzR [9]; Figure 4, read-out: Ki α2): > 2000 nM; Ki (α3β3γ2 GABAA/BzR [10]; Figure 4, read-out: Ki α3): > 2000 nM; Ki (α6β3γ2 GABAA/BzR [12]; Figure 4, read-out: Ki α6): > 2000 nM
CCc1c(C(=O)OC)ncc2[nH]c3cc(OC)c(OC)cc3c12 [DMCM, reference compound]							modulation [1]: inverse agonist; Ki (α1β3γ2 GABAA/BzR [2]; read-out: Ki α1): 5.69 nM; Ki (α2β3γ2 GABAA/BzR [3]; read-out: Ki α2): 8.29 nM; Ki (α3β3γ2 GABAA/BzR [4]; read-out: Ki α3): 4 nM; Ki (α5β3γ2 GABAA/BzR [5]; read-out: Ki α5): 1.04 nM; Ki (α6β3γ2 GABAA/BzR [6]; read-out: Ki α6): 134 nM
